Where a SMILES comes first, the peptide text is derived from it.
Columns and labels:
[1] = test system: MN-11 (Murine fibrosarcoma); test: MTT cytotoxicity, MN-11; type: cell-based; conditions: MN-11, 24 hours incubation
Text: (§1) The MTT assay is a colorimetric method for measuring the activity of enzymes in living cells that reduces Thiazolyl blue tetrazolium bromide (MTT) to formazan dyes showing a purple color. In this embodiment, a colorimetric 3-(4.5-dimethylthiazol-2-yl)-2.5-diphenyltetrazodium bromide (MTT) viability assay was used to assess the in vitro cytotoxicity of oncolytic peptides.
(§2) The half inhibition concentration (IC50) is the concentration required by the oncolytic peptides to reach fifty percent inhibition. In one embodiment, the oncolytic peptides were used for IC50 test via MTT colorimetric assay.
(§3) Human lung cancer lines PC9 and A549 and murine pancreatic cancer cell line Panc02 were cultured in RPMI medium supplemented with 10% fetal bovine serum and antibiotic in this embodiment. Additionally, murine hepatoma cell line Hepa 1-6, murine melanoma cell line B16-F10, murine fibrosarcoma cell line MN-11, murine mammary cancer cell line E0771 and human diploid fibroblast (HFW) were cultured in DMEM medium supplemented with 10% fetal bovine serum and antibiotic. Cells were cultured in a humidified incubator containing 5% CO2 at 37° C.
(§4) All cancer cell lines were seeded in a 96-well plate with a concentration of 5000-8000 cells/100 μl/well and incubated for 24 hrs. After medium was removed, 100 μl fresh medium containing peptide (ranging from 50 μM to 0.8 μM) was added to the wells. Following 24 hours incubation, fresh medium with MTT (0.5 mg/ml) was replaced and incubated for 3 hours. After medium/MTT was removed, DMSO was added at 100 μl for dissolving the formazan crystal. Cell survival rate was calculated by measuring the absorbance at 540 nm using a Multi-labeled Microplate Reader (Sunrise™, TECAN).

[2] = test system: HUVEC (Human Umbilical Vein Endothelial (Cell)); test: MTT cytotoxicity, HUVEC; type: cell-based; conditions: 24 hours incubation
Text: as §1, §2, §4

[3] = test system: B16-F10 (Murine skin malignant melanoma); test: MTT cytotoxicity, B16-F10; type: cell-based; conditions: B16-F10, 24 hours incubation
Text: as §1, §2, §3, §4

[4] = test system: OECM-1 (Human oral cancer cell); test: MTT cytotoxicity, OECM-1; type: cell-based; conditions: OECM-1, 24 hours incubation
Text: as §1, §2, §4

[5] = test system: EO771 (Murine mammary adenocarcinoma); test: MTT cytotoxicity, EO771; type: cell-based; conditions: EO771, 24 hours incubation
Text: as §1, §2, §3, §4

[6] = test system: NCI-N87 (Human gastric carcinoma); test: MTT cytotoxicity, NCI-N87; type: cell-based; conditions: NCI-N87, 24 hours incubation
Text: as §1, §2, §4

[7] = test system: Hepa I-6 (Murine hepatocellular carcinoma); test: MTT cytotoxicity, Hepa 1-6; type: cell-based; conditions: Hepa I-6, 24 hours incubation
Text: as §1, §2, §3, §4

[8] = test system: A549 (Human non-small cell lung cancer cell); test: MTT cytotoxicity, A549; type: cell-based; conditions: A549, 24 hours incubation
Text: as §1, §2, §3, §4

[9] = test system: C9 (Human oral cancer cell); test: MTT cytotoxicity, C9; type: cell-based; conditions: C9, 24 hours incubation
Text: as §1, §2, §4

HFW (Human fibroblast) = test: MTT cytotoxicity, HFW; type: cell-based; conditions: 24 hours incubation
Text: as §1, §2, §3, §4

RBC (Human blood cell) = test: Cytotoxicity, RBC; type: cell-based
Text: as §2

[10] = test system: HepG2 Cancer Cells (Human hepatocellular carcinoma); test: MTT cytotoxicity, HepG2; type: cell-based; conditions: HepG2, 24 hours incubation
Text: as §1, §2, §4

[11] = test system: HCT-15 (Human colorectal cancer); test: MTT cytotoxicity, HCT-15; type: cell-based; conditions: HCT-15, 24 hours incubation
Text: as §1, §2, §4

Panc02 = test: MTT cytotoxicity, Panc02; type: cell-based, murine; conditions: Panc02, 24 hours incubation
Text: as §1, §2, §3, §4

[12] = test system: A375 (human malignant melanoma); test: MTT cytotoxicity, A375; type: cell-based; conditions: A375, 24 hours incubation
Text: as §1, §2, §4

[13] = test system: PC9 (Human non-small cell lung cancer cell); test: MTT cytotoxicity, PC9; type: cell-based; conditions: PC9, 24 hours incubation
Text: as §1, §2, §3, §4

[14] = test system: SAS (Human tongue carcinoma); test: MTT cytotoxicity, SAS; type: cell-based; conditions: 24 hours incubation
Text: as §1, §2, §4

SMILES	IC50 [1] [µM]	IC50 [2] [µM]	IC50 [3] [µM]	IC50 [4] [µM]	IC50 [5] [µM]	IC50 [6] [µM]	IC50 [7] [µM]	IC50 [8] [µM]	IC50 [9] [µM]	IC50 (HFW (Human fibroblast)) [µM]	IC50 (RBC (Human blood cell)) [µM]	IC50 [10] [µM]	IC50 [11] [µM]	IC50 (Panc02) [µM]	IC50 [12] [µM]	IC50 [13] [µM]	IC50 [14] [µM]
CC(C)C[C@H](NC(=O)[C@H](Cc1ccc2ccccc2c1)NC(=O)[C@H](CCCCN)NC(=O)[C@H](CC(C)C)NC(=O)[C@H](Cc1c[nH]c2ccccc12)NC(=O)[C@H](CCCCN)NC(=O)[C@H](CCCNC(=N)N)NC(=O)[C@H](Cc1c[nH]c2ccccc12)NC(=O)[C@H](CCCCN)NC(=O)[C@H](CCCCN)NC(=O)[C@H](CCCCN)NC(=O)[C@H](CCCCN)NC(=O)[C@H](CCCCN)NC(=O)[C@H](CCCCN)NC(=O)[C@H](CCCCN)NC(=O)[C@@H](N)CCCCN)C(=O)N[C@@H](C)C(=O)N[C@@H](CCCCN)C(=O)N[C@@H](CCCCN)C(N)=O [SEQ ID NO: 2, KKKK-KK-KK-WRK-WLK-Nal-LA-KK-NH2] (HELM PEPTIDE1{K.K.K.K.K.K.K.K.W.R.K.W.L.K.[O=C([C@H](Cc1ccc2ccccc2c1)N[*:1])[*:2]].L.A.K.K.[am]}$$$$V2.0; N-terminus assumed)	13.4	9.03	13.7	15.5	10.1	8.58	8.5	6.34	16	11	45	11	6.6	7.17	5.59	4.36	15.8
CC(C)C[C@H](NC(=O)[C@H](Cc1ccc2ccccc2c1)NC(=O)[C@H](CCCNC(=N)N)NC(=O)[C@H](CCCNC(=N)N)NC(=O)[C@H](CCCCN)NC(=O)[C@H](CCCCN)NC(=O)[C@H](CCCCN)NC(=O)[C@@H](N)CCCCN)C(=O)N[C@@H](C)C(=O)N[C@@H](CCCCN)C(N)=O [SEQ ID NO: 10, KKKK-RR-Nal-LAK-NH2] (HELM PEPTIDE1{K.K.K.K.R.R.[O=C([C@H](Cc1ccc2ccccc2c1)N[*:1])[*:2]].L.A.K.[am]}$$$$V2.0; N-terminus assumed)	93.5	–	136	35.1	55.4	82.9	41.8	46.3	56.8	488	–	84.8	57.6	75.2	–	–	98.4
CC(C)C[C@H](NC(=O)[C@H](Cc1ccc2ccccc2c1)NC(=O)[C@H](CCCCN)NC(=O)[C@H](CC(C)C)NC(=O)[C@H](Cc1c[nH]c2ccccc12)NC(=O)[C@H](CCCCN)NC(=O)[C@H](CCCNC(=N)N)NC(=O)[C@H](Cc1c[nH]c2ccccc12)NC(=O)[C@H](CCCCN)NC(=O)[C@H](CCCCN)NC(=O)[C@H](CCCCN)NC(=O)[C@H](CCCCN)NC(=O)[C@H](CCCCN)NC(=O)[C@@H](N)CCCCN)C(=O)N[C@@H](C)C(=O)N[C@@H](CCCCN)C(N)=O [SEQ ID NO: 3, KKKK-KK-WRK-WLK-Nal-LAK-NH2] (HELM PEPTIDE1{K.K.K.K.K.K.W.R.K.W.L.K.[O=C([C@H](Cc1ccc2ccccc2c1)N[*:1])[*:2]].L.A.K.[am]}$$$$V2.0; N-terminus assumed)	16.1	7.61	15.4	15.5	6.32	10.7	7.16	5.05	13.2	9.15	38.4	15.7	8.89	8.43	8.27	6.85	17.1

From patent US20250250298A1, “ONCOLYTIC PEPTIDE AND USE THEREOF” (Rise Biopharmaceuticals Inc., priority 2022, published 2025)
